Experimental data taken from patent publication US9233984B2, “Compound, method for producing compound, and method for purifying compound” (Nippon Soda Co., Ltd., priority 2012, dated 2016).
“And” between values parts separate entries of the source, which are not always exact repeats. Equal values may be shown once.

Assay: Isomerization reaction rate under irradiation with light (365 nm, high-pressure mercury lamp) of 1% by weight aqueous solutions
Assay type: physicochemical
Conditions: 1% by weight aqueous solution
Experimental: The reaction rates of the isomerization reaction were compared for the TZOX and TZOX-Na salt synthesized in Example 1. More specifically, 1% by weight aqueous solutions of each were prepared followed by irradiating these aqueous solutions with light (wavelength: 365 nm) for 3 hours using a high-pressure mercury lamp. A portion of the aqueous solutions were sampled prior to the start of irradiation with light (irradiation time: 0 hours) and at 1, 2 and 3 hours after the start of irradiation with light followed by an investigation of the abundance ratios of the (E) form and (Z) form. Although the abundance ratio of the (Z) form in the case of TZOX-Na prior to irradiation with light was only 0.33%, it increased to 34% after 1 hour had elapsed since the start of irradiation and remained essentially unchanged after that point. In other words, it was determined that the TZOX-Na salt reaches equilibrium as a result of being irradiated with light for 1 hour, and that the isomerization rate thereof is extremely fast. In contrast, in the case of TZOX, the abundance ratio of the (Z) form only finally reached 35% after 3 hours had elapsed since the start of irradiation, and it was determined that at least 2 hours are required to reach equilibrium.

[1] = irradiation time 0 hours (prior to irradiation)

Row | Irradiation time required to reach equilibrium of (E)/(Z) isomerization | Abundance Ratio (%) (E) form [1] | Abundance Ratio (%) (Z) form [1] | Abundance Ratio (%) (E) form (irradiation time 1 hour) | Abundance Ratio (%) (Z) form (irradiation time 1 hour) | Abundance Ratio (%) (E) form (irradiation time 2 hours) | Abundance Ratio (%) (Z) form (irradiation time 2 hours) | Abundance Ratio (%) (E) form (irradiation time 3 hours) | Abundance Ratio (%) (Z) form (irradiation time 3 hours) | SMILES
1 | at least 2 hour | 99.52% | 0.45% | 83.99% | 13.7% | 70.39% | 28.13% | 62.8% | 35% and 35.3% | Cn1nnnc1C(=NO)c1ccccc1 [TZOX, (1-methyl-1H-tetrazol-5-yl)(phenyl)methanoneoxime]
2 | 1 h | 99.43% | 0.33% | 64.0% | 34% | 63.0% | 33.9% | 66.6% | 32.3% | Cn1nnnc1C(=N[O-])c1ccccc1.[Na+] [TZOX-Na]
